“And” between values parts separate entries of the source, which are not always exact repeats. Equal values may be shown once. Records with an inconclusive call do not appear. The source made the active and inactive calls.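 The calls were made as follows: active = fitted half-maximal concentration of signal decrease at or below twice the sample's top tested concentration; inconclusive = flat curve between -70 and -30 percent, or poor fit; inactive = flat within 30 percent, signal rise, or potency above limit.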
Biological target: T. gondii ME49Luc in IFN-y HeLa, luciferase, 72 h
Test: T. gondii growth inhibition with IFN-gamma, dose response, cell-based, ME49Luc, HeLa, luciferase, 72 h (AID 1259418)

SMILES: OC1(c2cccc(C(F)(F)F)c2)CCN(Cc2ccc3[nH]ccc3c2)CC1
- AC50: 33.5 µM

SMILES: CCCNC(=O)c1cc(-c2cnc(NCc3ccccc3)nc2)cn1C
- AC50: 7.07 µM and 17.3 µM

SMILES: COc1ccccc1NC(=O)N1CCCCN2[C@H](C1)[C@@H](c1ccc(-c3cccc(C#N)c3)cc1)[C@@H]2CO
- AC50: 21.1 µM

SMILES: COc1cccc(NC(=O)Nc2ccc(-c3nc(-c4ccc(C)cc4C)co3)cc2)c1
- AC50: > 39 µM (inactive)

SMILES: COc1cccc(-c2ccc3c(c2)[C@H]2[C@H](CCN2S(=O)(=O)c2ccccc2F)[C@@H](CO)N3)c1
- AC50: 25 µM and 6.64 µM

SMILES: Cc1ccc(-c2nc(CN3CCN(C(=O)NCCc4ccccc4)CC3)c(C)o2)cc1
- AC50: > 39 µM (inactive)

SMILES: Cc1cc(C)cc(S(=O)(=O)N2CCC[C@@H]2C(=O)NCCc2csc(-c3ccccc3)n2)c1
- AC50: 13.5 µM

SMILES: Cc1cccc(C(=O)N2CCC3(CC2)Nc2cc(F)ccc2-n2cccc23)c1
- AC50: > 39 µM (inactive)

SMILES: CCOc1ccccc1NS(=O)(=O)c1cc2c3c(c1)CCC(=O)N3CCC2
- AC50: 26.1 µM

SMILES: CC[C@H]1CN2CCC1C[C@@H]2[C@H](O)c1ccnc2ccc(OC)cc12 (stereo partly specified)
- AC50: 20 µM

SMILES: CC(=O)NCc1nnn2c1CN(c1ncccn1)CCC2
- AC50: 10.9 µM

SMILES: Cc1ccc(CN2CC3CN(Cc4cccc(F)c4)CC3C2)s1 (stereo unspecified)
- AC50: 9.23 µM

SMILES: Cc1cccc(C(=O)N2CCC(C(=O)NCCc3csc(C)n3)CC2)c1
- AC50: 26.4 µM

SMILES: Cc1ccc(C)c(S(=O)(=O)N2CCC3(CC2)c2ncc(-c4cccc(F)c4)n2CCN3C)c1
- AC50: 20.9 µM

SMILES: O=C(C[C@H]1CC[C@H]2[C@@H](COC[C@@H](O)CN2Cc2ccc(Oc3ccccc3)cc2)O1)N1CCN(c2ccccc2)CC1
- AC50: 15.2 µM and 32.3 µM

SMILES: Cc1ccccc1S(=O)(=O)N1CCCCN2[C@H](C1)[C@@H](c1ccc(C#CCN(C)C)cc1)[C@@H]2CO
- AC50: 20.9 µM

SMILES: CCOC(=O)c1ccc(NC(=O)N2CCN(Cc3nc(-c4ccc(C)cc4)oc3C)CC2)cc1
- AC50: 37.2 µM

SMILES: COc1cc(NC(=O)Nc2ccc(-c3nc(-c4ccc(C)cc4C)co3)cc2)cc(OC)c1
- AC50: 25.7 µM

SMILES: COc1ccc2c(c1)NC1(CCN(C(=O)c3ccc(F)cc3)CC1)c1cccn1-2
- AC50: > 20 µM (inactive)

SMILES: CCc1ccc(S(=O)(=O)N2CCC3(CC2)NCCN=C3NCc2ccc(Cl)cc2)cc1
- AC50: 7.78 µM

SMILES: COc1ccccc1N(Cc1nc(-c2cccc(C)c2)oc1C)S(=O)(=O)c1ccccc1
- AC50: 13.3 µM

SMILES: COc1ccc(-n2nnc3c(N4CCN(C(=O)C(=O)c5c[nH]c6ccccc56)CC4)ncnc32)cc1
- AC50: 20.3 µM

SMILES: CCOc1ccc(-c2nc(CN(c3ccccc3OC)S(=O)(=O)c3ccccc3)c(C)o2)cc1
- AC50: 8.3 µM

SMILES: Fc1ccccc1CSc1nc(NCc2ccccc2)c2ccccc2n1
- AC50: 17.9 µM

SMILES: CCN1C(=O)CCc2cc(NC(=O)Cc3cccc(OC)c3)ccc21
- AC50: 23 µM

SMILES: COc1ccccc1-c1nc(CN2CCc3c(sc4c3CCCC4)C2c2ccccc2)c(C)o1 (stereo unspecified)
- AC50: 7.72 µM

SMILES: Cc1ccc(-n2ncc3c(NCc4cccc(Cl)c4)ncnc32)c(C)c1
- AC50: 22.3 µM

SMILES: O=C(C1CCCCC1)N1CCC2(CC1)Nc1ccc(Cl)cc1-n1cccc12
- AC50: 24.7 µM

SMILES: O=C(CCC1N=C2c3ccccc3N=C(SCc3ccc(F)cc3)N2C1=O)NCc1ccc(F)cc1 (stereo unspecified)
- AC50: > 39 µM (inactive)

SMILES: CCOc1ccc(N(Cc2nc(-c3ccc(C)cc3)oc2C)S(=O)(=O)c2ccccc2)cc1
- AC50: > 39 µM (inactive)

SMILES: N#C[C@@H]1N[C@H](CO)[C@H]1c1ccc(-c2cccc(F)c2)cc1
- AC50: 26.3 µM

SMILES: Cc1nc(-c2cc(S(=O)(=O)NCCCN3CCCC(C)C3)c(C)s2)sc1C (stereo unspecified)
- AC50: 33.7 µM

SMILES: CC(C)CNc1nc2c(cc1C(=O)NCC1CC1)CCN(c1ccncn1)CC2
- AC50: 19 µM

SMILES: O=C(CCCCCn1c(=S)[nH]c2ccccc2c1=O)N1CCC(O)(c2cccc(C(F)(F)F)c2)CC1
- AC50: 26.9 µM

SMILES: CCN1CCN(Cc2ccc(Nc3nc(-c4ccc(OC)cc4)nc4ccccc34)cc2)CC1
- AC50: 11.3 µM and 12.5 µM

SMILES: N#Cc1cccc(-c2ccc3c(c2)[C@@H]2[C@@H](CCN2S(=O)(=O)c2ccc(F)cc2)[C@H](CO)N3)c1
- AC50: 17.8 µM

SMILES: CC(C)CC#Cc1ccc([C@@H]2[C@@H](CO)N3CCCCN(C(=O)Nc4ccccc4)C[C@@H]23)cc1
- AC50: 22.5 µM and 15.4 µM

SMILES: COC1(C)CC2C(CC1OC(=O)c1cc([N+](=O)[O-])cc([N+](=O)[O-])c1)C2(C)C (stereo unspecified)
- AC50: 12.4 µM

SMILES: O=C(CC1N=C2c3ccccc3N=C(SCc3ccccc3Cl)N2C1=O)NCc1cccs1 (stereo unspecified)
- AC50: 21.5 µM

SMILES: COc1cc(NC(=O)Nc2ccc(-c3nc(-c4cc(C)ccc4C)co3)cc2)cc(OC)c1OC
- AC50: 14.5 µM

SMILES: COc1cc2c(cc1O)CC[C@@H]1[C@@H]2CC[C@]2(C)[C@@H](O)CC[C@@H]12
- AC50: 1.99 µM and 4.21 µM

SMILES: Cc1ccc(C(=O)Nc2c(C(=O)NCc3ccccn3)[nH]c3ccc(C)cc23)cc1
- AC50: 25.3 µM

SMILES: CCOc1ccc(N(Cc2nc(-c3ccc(C)cc3)oc2C)S(=O)(=O)c2cccs2)cc1
- AC50: 5.31 µM

SMILES: CN(C)CCCNC(=O)c1cc(-c2cnc(-c3ccccc3)nc2)cn1C
- AC50: 30.1 µM

SMILES: COc1ccc(-c2nc(Nc3ccc(C)cc3)c3ccccc3n2)cc1
- AC50: 19.1 µM

SMILES: COc1ccc(-c2nc3c(s2)CN(S(=O)(=O)c2ccccc2C)CC3)cc1
- AC50: 6.3 µM and 8.21 µM
